In PubChem BioAssay AID1963978 (Molecular Pharmacology Branch, DTP, NCI, 2024):
pIC50: −log10 of the molar value.

Tested on: 616215-338-R-J1-PDC spheroids with HUVEC/MSC, viability
Assay: Anticancer human tumor 616215-338-R-J1-PDC patient-derived colon adenocarcinoma cell line growth inhibition [PI3K]
Details: for pIC50: curve of first compound; for viability, T/C: stronger effect = lower value
Procedure, shortened: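 Multi-cell spheroids combine tumor cells with HUVEC and human MSCs, treated with targeted agents alone or with inavolisib, alpelisib, duvelisib or copanlisib. Concentrations fall in half-log steps from at or near clinical Cmax, or from 10 microM where Cmax is unknown; viability read-out.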

[1] = second compound 0.00316 µM, first compound 0.0316 µM
[2] = second compound 0.00316 µM, first compound 0.1 µM
[3] = second compound 0.01 µM, first compound 0.0316 µM
[4] = second compound 0.01 µM, first compound 0.1 µM
[5] = second compound 0.0316 µM, first compound 0.0316 µM
[6] = second compound 0.0316 µM, first compound 0.1 µM
[7] = second compound 0.1 µM, first compound 0.0316 µM
[8] = second compound 0.1 µM, first compound 0.1 µM
[9] = second compound 0.316 µM, first compound 0.0316 µM
[10] = second compound 0.316 µM, first compound 0.1 µM
[11] = second compound 1 µM, first compound 0.0316 µM
[12] = second compound 1 µM, first compound 0.1 µM
[13] = second compound 0.00316 µM, first compound 0.316 µM
[14] = second compound 0.00316 µM, first compound 1 µM
[15] = second compound 0.00316 µM, first compound 3.16 µM
[16] = second compound 0.00316 µM, first compound 10 µM
[17] = second compound 0.01 µM, first compound 0.316 µM
[18] = second compound 0.01 µM, first compound 1 µM
[19] = second compound 0.01 µM, first compound 3.16 µM
[20] = second compound 0.01 µM, first compound 10 µM
[21] = second compound 0.0316 µM, first compound 0.316 µM
[22] = second compound 0.0316 µM, first compound 1 µM
[23] = second compound 0.0316 µM, first compound 3.16 µM
[24] = second compound 0.0316 µM, first compound 10 µM
[25] = second compound 0.1 µM, first compound 0.316 µM
[26] = second compound 0.1 µM, first compound 1 µM
[27] = second compound 0.1 µM, first compound 3.16 µM
[28] = second compound 0.1 µM, first compound 10 µM
[29] = second compound 0.316 µM, first compound 0.316 µM
[30] = second compound 0.316 µM, first compound 1 µM
[31] = second compound 0.316 µM, first compound 3.16 µM
[32] = second compound 0.316 µM, first compound 10 µM
[33] = second compound 1 µM, first compound 0.316 µM
[34] = second compound 1 µM, first compound 1 µM
[35] = second compound 1 µM, first compound 3.16 µM
[36] = second compound 1 µM, first compound 10 µM
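Further: spheroids exposed to agents for seven days before the viability read.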

CC(=O)c1c(C)c2cnc(Nc3ccc(N4CCNCC4)cn3)nc2n(C2CCCC2)c1=O + CC(Nc1ccc2c(c1)OCCn1cc(N3C(=O)OCC3C(F)F)nc1-2)C(N)=O
pIC50 (second compound 0.00316 µM): < 7.00
pIC50 (second compound 0.01 µM): < 7.00
pIC50 (second compound 0.0316 µM): < 7.00
pIC50 (second compound 0.1 µM): < 7.00
pIC50 (second compound 0.316 µM): < 7.00
pIC50 (second compound 1 µM): < 7.00
viability, T/C (second compound 0.00316 µM, first compound 0.000316 µM): 87.7%
viability, T/C (second compound 0.00316 µM, first compound 0.001 µM): 104%
viability, T/C (second compound 0.00316 µM, first compound 0.00316 µM): 93%
viability, T/C (second compound 0.00316 µM, first compound 0.01 µM): 99.4%
viability, T/C [1]: 94.6%
viability, T/C [2]: 95.9%
viability, T/C (second compound 0.01 µM, first compound 0.000316 µM): 99.6%
viability, T/C (second compound 0.01 µM, first compound 0.001 µM): 100%
viability, T/C (second compound 0.01 µM, first compound 0.00316 µM): 107%
viability, T/C (second compound 0.01 µM, first compound 0.01 µM): 90.2%
viability, T/C [3]: 99.5%
viability, T/C [4]: 96.5%
viability, T/C (second compound 0.0316 µM, first compound 0.000316 µM): 93.2%
viability, T/C (second compound 0.0316 µM, first compound 0.001 µM): 102%
viability, T/C (second compound 0.0316 µM, first compound 0.00316 µM): 98.2%
viability, T/C (second compound 0.0316 µM, first compound 0.01 µM): 101%
viability, T/C [5]: 91.5%
viability, T/C [6]: 107%
viability, T/C (second compound 0.1 µM, first compound 0.000316 µM): 102%
viability, T/C (second compound 0.1 µM, first compound 0.001 µM): 99%
viability, T/C (second compound 0.1 µM, first compound 0.00316 µM): 92.6%
viability, T/C (second compound 0.1 µM, first compound 0.01 µM): 112%
viability, T/C [7]: 93.8%
viability, T/C [8]: 101%
viability, T/C (second compound 0.316 µM, first compound 0.000316 µM): 106%
viability, T/C (second compound 0.316 µM, first compound 0.001 µM): 112%
viability, T/C (second compound 0.316 µM, first compound 0.00316 µM): 100%
viability, T/C (second compound 0.316 µM, first compound 0.01 µM): 106%
viability, T/C [9]: 98%
viability, T/C [10]: 90.2%
viability, T/C (second compound 1 µM, first compound 0.000316 µM): 105%
viability, T/C (second compound 1 µM, first compound 0.001 µM): 94.7%
viability, T/C (second compound 1 µM, first compound 0.00316 µM): 102%
viability, T/C (second compound 1 µM, first compound 0.01 µM): 105%
viability, T/C [11]: 95.1%
viability, T/C [12]: 81.7%

CC(Cn1ccc(-c2ccc(C#N)c(Cl)c2)n1)NC(=O)c1cc(C(C)O)[nH]n1 (stereo not drawn) + CC(Nc1ccc2c(c1)OCCn1cc(N3C(=O)OCC3C(F)F)nc1-2)C(N)=O
pIC50 (second compound 0.00316 µM): < 5.00
pIC50 (second compound 0.01 µM): < 5.00
pIC50 (second compound 0.0316 µM): < 5.00
pIC50 (second compound 0.1 µM): < 5.00
pIC50 (second compound 0.316 µM): < 5.00
pIC50 (second compound 1 µM): < 5.00
viability, T/C [1]: 90.8%
viability, T/C [2]: 94%
viability, T/C [13]: 91.2%
viability, T/C [14]: 93.6%
viability, T/C [15]: 92.4%
viability, T/C [16]: 94.3%
viability, T/C [3]: 89.3%
viability, T/C [4]: 105%
viability, T/C [17]: 102%
viability, T/C [18]: 92.4%
viability, T/C [19]: 92.3%
viability, T/C [20]: 104%
viability, T/C [5]: 94.4%
viability, T/C [6]: 105%
viability, T/C [21]: 90.1%
viability, T/C [22]: 101%
viability, T/C [23]: 96.3%
viability, T/C [24]: 101%
viability, T/C [7]: 107%
viability, T/C [8]: 88%
viability, T/C [25]: 96.8%
viability, T/C [26]: 102%
viability, T/C [27]: 105%
viability, T/C [28]: 94.4%
viability, T/C [9]: 109%
viability, T/C [10]: 104%
viability, T/C [29]: 107%
viability, T/C [30]: 101%
viability, T/C [31]: 101%
viability, T/C [32]: 110%
viability, T/C [11]: 101%
viability, T/C [12]: 99.8%
viability, T/C [33]: 104%
viability, T/C [34]: 103%
viability, T/C [35]: 99.4%
viability, T/C [36]: 97.8%

Cn1ncc(Cl)c1-c1cc(C(=O)NC(CN)Cc2cccc(F)c2)sc1Cl (stereo not drawn) + CC(Nc1ccc2c(c1)OCCn1cc(N3C(=O)OCC3C(F)F)nc1-2)C(N)=O
pIC50 (second compound 0.00316 µM): 5.18
pIC50 (second compound 0.01 µM): 5.24
pIC50 (second compound 0.0316 µM): 5.23
pIC50 (second compound 0.1 µM): 5.24
pIC50 (second compound 0.316 µM): 5.20
pIC50 (second compound 1 µM): 5.26
viability, T/C [1]: 101%
viability, T/C [2]: 82.3%
viability, T/C [13]: 96.3%
viability, T/C [14]: 92.7%
viability, T/C [15]: 78.6%
viability, T/C [16]: 33.6%
viability, T/C [3]: 87.6%
viability, T/C [4]: 96%
viability, T/C [17]: 115%
viability, T/C [18]: 104%
viability, T/C [19]: 68.3%
viability, T/C [20]: 33.6%
viability, T/C [5]: 104%
viability, T/C [6]: 92.2%
viability, T/C [21]: 91.9%
viability, T/C [22]: 88.8%
viability, T/C [23]: 73.7%
viability, T/C [24]: 30.3%
viability, T/C [7]: 90.2%
viability, T/C [8]: 108%
viability, T/C [25]: 95.1%
viability, T/C [26]: 83.7%
viability, T/C [27]: 73.4%
viability, T/C [28]: 30%
viability, T/C [9]: 90.1%
viability, T/C [10]: 110%
viability, T/C [29]: 97%
viability, T/C [30]: 88.3%
viability, T/C [31]: 71.6%
viability, T/C [32]: 36.1%
viability, T/C [11]: 100%
viability, T/C [12]: 101%
viability, T/C [33]: 93.9%
viability, T/C [34]: 81.1%
viability, T/C [35]: 74.6%
viability, T/C [36]: 27.9%

C#Cc1c(F)ccc2cc(O)cc(-c3ncc4c(N5CC6CCC(C5)N6)nc(OCC56CCCN5CC(F)C6)nc4c3F)c12 (stereo not drawn) + Cc1nc(NC(=O)N2CCCC2C(N)=O)sc1-c1ccnc(C(C)(C)C(F)(F)F)c1
pIC50 (second compound 0.0316 µM): < 5.00
pIC50 (second compound 0.1 µM): < 5.00
pIC50 (second compound 0.316 µM): < 5.00
pIC50 (second compound 1 µM): < 5.00
pIC50 (second compound 3.16 µM): < 5.00
pIC50 (second compound 10 µM): 5.04
viability, T/C [5]: 108%
viability, T/C [6]: 106%
viability, T/C [21]: 102%
viability, T/C [22]: 93.3%
viability, T/C [23]: 82%
viability, T/C [24]: 67.6%
viability, T/C [7]: 97.2%
viability, T/C [8]: 104%
viability, T/C [25]: 100%
viability, T/C [26]: 104%
viability, T/C [27]: 96.1%
viability, T/C [28]: 54.5%
viability, T/C [9]: 95.3%
viability, T/C [10]: 99.2%
viability, T/C [29]: 96.4%
viability, T/C [30]: 84.8%
viability, T/C [31]: 86.3%
viability, T/C [32]: 54.9%
viability, T/C [11]: 110%
viability, T/C [12]: 101%
viability, T/C [33]: 91.2%
viability, T/C [34]: 89.9%
viability, T/C [35]: 74.6%
viability, T/C [36]: 63.6%
viability, T/C (second compound 3.16 µM, first compound 0.0316 µM): 112%
viability, T/C (second compound 3.16 µM, first compound 0.1 µM): 104%
viability, T/C (second compound 3.16 µM, first compound 0.316 µM): 93.8%
viability, T/C (second compound 3.16 µM, first compound 1 µM): 85.1%
viability, T/C (second compound 3.16 µM, first compound 3.16 µM): 78.1%
viability, T/C (second compound 3.16 µM, first compound 10 µM): 53%
viability, T/C (second compound 10 µM, first compound 0.0316 µM): 88.3%
viability, T/C (second compound 10 µM, first compound 0.1 µM): 93.2%
viability, T/C (second compound 10 µM, first compound 0.316 µM): 93.5%
viability, T/C (second compound 10 µM, first compound 1 µM): 88.9%
viability, T/C (second compound 10 µM, first compound 3.16 µM): 82.5%
viability, T/C (second compound 10 µM, first compound 10 µM): 47.1%
